Converted amounts (≈) assume the structure as drawn.
Key:
MDCK-MDR1 cells = assay: MTT cytotoxicity assay; type: cell-based, canine
Procedure: (§1) MDCK-MDR1 cells at passage 17 were cultured in DMEM supplemented with 10% FBS, 1% glutamine, 100 U/mL penicillin/streptomycin, 1% NEAA, and 1 mmol/L sodium pyruvate. The cells were incubated overnight at 37°C with 5% CO2 and a relative humidity of 90%. Once the cells reached approximately 80% confluence, they were treated with a 0.25% trypsin/EDTA solution to dissociate the cells. Subsequently, the cells were seeded at a density of 5 × 10^5 cells/cm^2 in Millicell-96 well plates (Millipore, Burlington, USA). Prior to conducting the experiments, the integrity of the cell monolayer was confirmed by measuring transepithelial electrical resistance (TEER) using a Millicell ERS® meter (Millipore, Burlington, USA). A TEER value greater than 400 Ω cm^2 was required to ensure the formation and preservation of tight junctions.
(§2) The ability of ammoxetine to inhibit the growth of MDCK-MDR1 cells was evaluated using the MTT assay. Ammoxetine was diluted with transport buffer [Hank’s balanced salt solution (HBSS) containing 6.0 g HEPES, pH 7.2–7.4] from a stock solution (2 mg/mL) dissolved in HBSS to create a series of standard concentrations: 1.28, 6.4, 32, 160, 800 ng/mL and 4, 20, 100, 500 μg/mL. Prior to the assay, the cell culture medium was aspirated and replaced with different standard concentrations of ammoxetine (100 μL/well, n = 6). The cells were then incubated at 37°C for 3 h. Following the incubation, 20 μL of MTT solution (5 mg/mL) was added to each well, and the incubation was continued for 4 h. Subsequently, the solution in each well was discarded, and 150 μL of dimethyl sulfoxide was added. After vortexing for 10 min, the absorbance was measured at 570 nm using a Varioskan® Flash multimode reader (Thermo Fisher Scientific, Waltham, USA). Blank control solutions, consisting of HBSS without ammoxetine, were also applied to the cells. The absorbance values were then used to calculate the relative growth rate (RGR, %) of cells using the formula RGR = ODammoxetine/ODblank × 100%, where ODammoxetine and ODblank represent the mean absorbance values of six parallel measurements in the ammoxetine and blank control solutions, respectively ([Ji et al., 2024]). The Prism 5 software (GraphPad Software, Inc., San Diego, USA) was used to determine the 50% toxic concentration (TC50) value of ammoxetine.

MTT cytotoxicity assay = type: cell-based, canine; conditions: dog, MDCK-MDR1 cells; 0–20 μg/mL, 3 h; read-out: cellular inhibition rate
Procedure: as §1, §2

HLM = assay: Hepatic microsome stability assay, HLM; type: in vitro ADME, human; conditions: predicted hepatic clearance
Procedure: A hepatic microsome stability assay was conducted to investigate the metabolic disposition of ammoxetine. In this assay, 100 μL of ammoxetine (2.5 μmol/L) was incubated at 37°C with 100 μL of liver microsomes (RLM, DLM, MLM, or HLM) formulated in a 5 mmol/L dipotassium hydrogen phosphate (K2HPO4) buffer at pH 7.4. The concentration of microsomes was 0.5 g/L. To initiate the incubations, 50 μL of NADPH solution preincubated at 37°C was added. […] Parallel triplicate samples were prepared for each time point, including 0, 2, 5, 10, 15, 30, 60, 90, and 120 min. To stop the reactions at each time point, 250 μL of ice-cold precipitating agent (acetonitrile/methanol, 1:1, v/v) containing 500 ng/mL of L-phencynonate (IS) was added to the incubation mixture. The samples were vortexed for 2 min at 4°C and then centrifuged at 13,800×g for 10 min. The supernatants were analyzed using an LC-MS-MS approach. […]
In Formula 3, t1/2 (min) represents the half-life of ammoxetine in liver microsomes. It is calculated by dividing −0.693 by the resulting slope (k e) obtained from a natural logarithm plot of the remaining concentration of ammoxetine against incubation time. […]

CL h (HLM): 9.05 ± 0.13 mL/min/kg
SMILES: CNCC[C@H](Oc1cccc2c1OCO2)c1cccs1 [ammoxetine]
RGR (%) (MDCK-MDR1 cells; 0.16 μg/mL): 103.48±9.43% | RGR (%) (MDCK-MDR1 cells; 0.80 μg/mL): 102.55±18.09% | RGR (%) (MDCK-MDR1 cells; 4 μg/mL): 103.59±20.82% | RGR (%) (MDCK-MDR1 cells; 20 μg/mL): 89.16±12.89% | RGR (%) (MDCK-MDR1 cells; 100 μg/mL): 55.53±7.87% | RGR (%) (MDCK-MDR1 cells; 500 μg/mL): 24.49±2.36% | RGR (%) (MDCK-MDR1 cells; 1.28×e-3 μg/mL): 113.13±22.65% | RGR (%) (MDCK-MDR1 cells; 3.20×e-2 μg/mL): 103.57±14.18% | RGR (%) (MDCK-MDR1 cells; 6.40×e-3 μg/mL): 114.88±14.68% | TC50 (MDCK-MDR1 cells; 50% toxic concentration from ln concentration-RGR curve): 79.76 ± 18.94 µg/mL (≈ 274 µM) | inhibition at 3 h (MTT cytotoxicity assay): < 10%
